This is an account of results in patent US9937139B2 (priority 2014, dated 2018).

Test [1] concerns B16 melanoma cells. Put plainly: In vivo tumor growth suppression, B16 efficacy model. Conditions: C57BL/6 mice, s.c. B16 melanoma, IP daily for 12 days; test compound 5 mg/kg and 10 mg/kg (dose of tabulated value not stated), melphalan 2.5 mg/kg.
The subject of test [2] is LLCPK cells conditionally expressing hLAT1. Put plainly: LAT1-specific in vitro cytotoxicity, modified clonigenic assay. Format: cell-based. Conditions: 3 μM test compound for 30 min, then 7-10 days proliferation; induced (LAT1+) vs non-induced.

On to `Cc1cc(N(CCCl)CCCl)ccc1C(C)(CN)CC(=O)O` (centres unmarked) [Example 7, 4-Amino-3-[4-[bis(2-chloroethyl)amino]-2-methyl-phenyl]-3-methyl-butanoic acid], for which, in test [1], the “Tumor Growth (% Control) 5 days post-dosing” value was determined as 50 % Control and the “Tumor Growth (% Control) End of dosing” value worked out at 38 % Control.

With `Cc1c(N(CCCl)CCCl)cccc1C(C)(CN)CC(=O)O` (centres unmarked) [Example 6, 4-Amino-3-[3-[bis(2-chloroethyl)amino]-2-methyl-phenyl]-3-methyl-butanoic acid], in test [2], the “percent surviving cells in cells expressing LAT1 compared to cells not expressing LAT1” value is given as “about the same”.

For the compound `Cc1ccc(N(CCCl)CCCl)cc1C(C)(CN)CC(=O)O` (centres unmarked) [Example 5, 4-Amino-3-[5-[bis(2-chloroethyl)amino]-2-methyl-phenyl]-3-methyl-butanoic acid], in test [1], the “Tumor Growth (% Control) 5 days post-dosing” value is 14 % Control and the “Tumor Growth (% Control) End of dosing” value came out at 13 % Control.

As to `N[C@@H](Cc1ccc(N(CCCl)CCCl)cc1)C(=O)O` [Melphalan, melphalan, reference compound], the “percent surviving cells in cells expressing LAT1 compared to cells not expressing LAT1” value in test [2] was “about the same”. In addition, in test [1], the “Tumor Growth (% Control) 5 days post-dosing” value is given as 56 % Control and the “Tumor Growth (% Control) End of dosing” value is reported as 33 % Control.
